Data: ChEMBL document CHEMBL6153063 (Eur J Med Chem, 2025)
pIC50, pKd: −log10 of the molar value. Calls of active or inactive are those of the source. The calls are words filed in the database; no cut-off is given here.

Columns and labels:
[1] = target: Apoptosis regulator Bcl-2 (Homo sapiens, UniProt P10415); assay: Binding affinity to Bcl-2 (unknown origin) assessed as dissociation constant incubated for 1 hr by KINOMEscan assay
[2] = target: T1, Receptor-type tyrosine-protein kinase FLT3 (Homo sapiens, UniProt P36888); assay: Binding affinity to FLT3 (unknown origin) assessed as dissociation constant incubated for 1 hr by KINOMEscan assay
T1 sequence (P36888 whole entry): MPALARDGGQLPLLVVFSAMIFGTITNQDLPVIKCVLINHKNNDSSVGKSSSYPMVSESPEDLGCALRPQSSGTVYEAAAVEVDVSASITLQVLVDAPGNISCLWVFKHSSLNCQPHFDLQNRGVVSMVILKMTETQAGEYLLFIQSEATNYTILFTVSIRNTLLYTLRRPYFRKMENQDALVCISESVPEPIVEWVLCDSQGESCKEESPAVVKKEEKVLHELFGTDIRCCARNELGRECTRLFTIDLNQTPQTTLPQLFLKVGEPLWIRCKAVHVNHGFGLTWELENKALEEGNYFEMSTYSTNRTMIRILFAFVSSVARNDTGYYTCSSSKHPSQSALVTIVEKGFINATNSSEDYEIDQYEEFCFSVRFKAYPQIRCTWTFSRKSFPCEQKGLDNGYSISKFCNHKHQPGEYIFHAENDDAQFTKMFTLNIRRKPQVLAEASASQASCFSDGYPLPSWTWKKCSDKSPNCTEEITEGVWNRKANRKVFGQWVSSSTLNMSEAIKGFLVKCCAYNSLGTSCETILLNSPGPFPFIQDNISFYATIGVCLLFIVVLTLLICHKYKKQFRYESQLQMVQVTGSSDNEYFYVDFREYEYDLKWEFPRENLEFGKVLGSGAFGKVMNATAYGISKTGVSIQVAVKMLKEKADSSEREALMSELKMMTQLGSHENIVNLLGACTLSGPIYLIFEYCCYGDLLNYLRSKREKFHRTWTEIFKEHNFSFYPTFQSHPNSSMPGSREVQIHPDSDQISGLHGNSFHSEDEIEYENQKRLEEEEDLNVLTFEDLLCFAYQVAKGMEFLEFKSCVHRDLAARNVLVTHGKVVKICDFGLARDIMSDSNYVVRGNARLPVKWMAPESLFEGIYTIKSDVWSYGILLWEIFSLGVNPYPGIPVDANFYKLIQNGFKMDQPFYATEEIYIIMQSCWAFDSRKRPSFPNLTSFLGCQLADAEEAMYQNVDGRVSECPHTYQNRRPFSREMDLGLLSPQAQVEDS

MV4-11 [3] = assay: Inhibition of cell viability in human MV4-11 cells incubated for 48 hrs by Alamar blue assay; type: functional, cell-based; details: MV4-11, 48 h
[4] = Inhibition of cell viability in human Venetoclax-resistant MV4-11 cells overexpressing Bcl-2 incubated for 48 hrs by Alamar blue assay; type: functional, cell-based; details: Venetoclax-resistant MV4-11, 48 h
MOLM-14 [5] = assay: Inhibition of cell viability in human MOLM-14 cells incubated for 48 hrs by Alamar blue assay; type: functional, cell-based; details: MOLM-14, 48 h
[6] = Inhibition of cell viability in human Gilteritinib-resistant MOLM-14 cells expressing FLT3 F691L mutant incubated for 48 hrs by Alamar blue assay; type: functional, cell-based; details: Gilteritinib-resistant MOLM-14, 48 h
MV4-11 [7] = assay: Induction of apoptosis in human MV4-11 cells assessed as viable cells at 200 nM incubated for 48 hrs by Annexin V/7AAD staining based flow cytometry (reference value: 95.6 %); type: functional; details: read-out: Activity
MV4-11 [8] = assay: Induction of apoptosis in human MV4-11 cells assessed as early apoptotic cells at 200 nM incubated for 48 hrs by Annexin V/7AAD staining based flow cytometry (reference value: 2.3 %); type: functional
MV4-11 [9] = assay: Induction of apoptosis in human MV4-11 cells assessed as late apoptotic cells at 200 nM incubated for 48 hrs by Annexin V/7AAD staining based flow cytometry (reference value: 1.7 %); type: functional
[10] = system: Venetoclax-resistant MV4-11; assay: Induction of apoptosis in human Venetoclax-resistant MV4-11 cells overexpressing Bcl-2 upto 200 nM incubated for 48 hrs by Annexin V/7AAD staining based flow cytometry; type: functional, cell-based
[11] = system: Gilteritinib-resistant MOLM-14; assay: Induction of apoptosis in human Gilteritinib-resistant MOLM-14 cells expressing FLT3 F691L mutant upto 200 nM incubated for 48 hrs by Annexin V/7AAD staining based flow cytometry; type: functional, cell-based
MV4-11 [12] = assay: Induction of apoptosis in human MV4-11 cells assessed as viable cells at 200 nM incubated for 48 hrs in presence of GIL by Annexin V/7AAD staining based flow cytometry (reference value: 95.6 %); type: functional; details: read-out: Activity
MV4-11 [13] = assay: Inhibition of cell viability in human MV4-11 cells incubated for 48 hrs in presence of GIL by Alamar blue assay; details: MV4-11, 48 h
[14] = Inhibition of cell viability in human Venetoclax-resistant MV4-11 cells overexpressing Bcl-2 incubated for 48 hrs in presence of GIL by Alamar blue assay; type: functional, cell-based; details: Venetoclax-resistant MV4-11, 48 h
MOLM-14 [15] = assay: Inhibition of cell viability in human MOLM-14 cells incubated for 48 hrs in presence of GIL by Alamar blue assay; type: functional, cell-based; details: MOLM-14, 48 h
[16] = Inhibition of cell viability in human Gilteritinib-resistant MOLM-14 cells expressing FLT3 F691L mutant incubated for 48 hrs in presence of GIL by Alamar blue assay; type: functional, cell-based; details: Gilteritinib-resistant MOLM-14, 48 h
MV4-11 [17] = assay: Induction of apoptosis in human MV4-11 cells assessed as early apoptotic cells at 200 nM incubated for 48 hrs in presence of GIL by Annexin V/7AAD staining based flow cytometry (reference value: 2.3 %); type: functional
MV4-11 [18] = assay: Induction of apoptosis in human MV4-11 cells assessed as late apoptotic cells at 200 nM incubated for 48 hrs in presence of GIL by Annexin V/7AAD staining based flow cytometry (reference value: 1.7 %); type: functional
MV4-11 [19] = assay: Inhibition of cell viability in human MV4-11 cells incubated for 48 hrs in presence of VEN by Alamar blue assay; details: MV4-11, 48 h
MOLM-14 [20] = assay: Inhibition of cell viability in human MOLM-14 cells incubated for 48 hrs in presence of VEN by Alamar blue assay; details: MOLM-14, 48 h
MV4-11 [21] = assay: Induction of apoptosis in human MV4-11 cells assessed as viable cells at 200 nM incubated for 48 hrs in presence of VEN by Annexin V/7AAD staining based flow cytometry (reference value: 95.6 %); type: functional; details: read-out: Activity
MV4-11 [22] = assay: Induction of apoptosis in human MV4-11 cells assessed as early apoptotic cells at 200 nM incubated for 48 hrs in presence of VEN by Annexin V/7AAD staining based flow cytometry (reference value: 2.3 %); type: functional
MV4-11 [23] = assay: Induction of apoptosis in human MV4-11 cells assessed as late apoptotic cells at 200 nM incubated for 48 hrs in presence of VEN by Annexin V/7AAD staining based flow cytometry (reference value: 1.7 %); type: functional
cells [24] = details: Homo sapiens, Venetoclax-resistant MV4-11, 48 h
cells [25] = details: Homo sapiens, Gilteritinib-resistant MOLM-14, 48 h

Apoptosis regulator Bcl-2, sequence (P10415 whole entry): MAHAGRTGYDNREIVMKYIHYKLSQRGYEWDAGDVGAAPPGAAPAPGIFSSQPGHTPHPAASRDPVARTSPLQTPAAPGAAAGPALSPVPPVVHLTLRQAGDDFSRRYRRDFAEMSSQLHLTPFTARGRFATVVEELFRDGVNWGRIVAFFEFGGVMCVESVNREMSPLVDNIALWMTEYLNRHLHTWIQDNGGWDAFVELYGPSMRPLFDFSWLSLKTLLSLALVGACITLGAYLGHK

Compound | pIC50 (MV4-11 [3]) | pIC50 (MOLM-14 [5]) | pIC50 [4] | pIC50 [6] | other results
CCc1nc(C(N)=O)c(Nc2ccc(N3CCN(C(=O)C4CCN(c5ccc(S(=O)(=O)NC(=O)c6ccc(N7CCN(CC8=C(c9ccc(Cl)cc9)CC(C)(C)CC8)CC7)cc6Oc6cnc7[nH]ccc7c6)cc5[N+](=O)[O-])CC4)CC3)c(OC)c2)nc1NC1CCOCC1 | 6.01 | < 5.00 | 5.49 | < 5.00 | 
CC1(C)CCC(CN2CCN(c3ccc(C(=O)NS(=O)(=O)c4ccc(NCC5CCOCC5)c([N+](=O)[O-])c4)c(Oc4cnc5[nH]ccc5c4)c3)CC2)=C(c2ccc(Cl)cc2)C1 [VENETOCLAX] |  | 5.77 | 6.12 | 5.70 | viability at 0.2 µM (MV4-11 [12]): 0.4%; pIC50 (MV4-11 [13]): 8.59; pIC50 [14]: 8.06; pIC50 (MOLM-14 [15]): 7.79; pIC50 [16]: 7.20; Activity (MV4-11 [17]): 31.1%; Activity (MV4-11 [18]): 66.9%
CCc1nc(C(N)=O)c(Nc2ccc(N3CCC(N4CCN(C(=O)CCCCCCNc5ccc(S(=O)(=O)NC(=O)c6ccc(N7CCN(CC8=C(c9ccc(Cl)cc9)CC(C)(C)CC8)CC7)cc6Oc6cnc7[nH]ccc7c6)cc5[N+](=O)[O-])CC4)CC3)c(OC)c2)nc1NC1CCOCC1 | 7.03 | 5.48 | 6.04 | < 5.00 | 
CCc1nc(C(N)=O)c(Nc2ccc(N3CCC(N4CCN(C)CC4)CC3)c(OC)c2)nc1NC1CCOCC1 [GILTERITINIB] | 7.83 | 7.59 | 7.27 | 6.89 | pIC50 (MV4-11 [19]): 8.59; pIC50 (MOLM-14 [20]): 7.79; viability at 0.2 µM (MV4-11 [21]): 0.4%; Activity (MV4-11 [22]): 31.1%; Activity (MV4-11 [23]): 66.9%; pIC50 (cells [24]): 8.06; pIC50 (cells [25]): 7.20
CCc1nc(C(N)=O)c(Nc2ccc(N3CCC(N4CCN(C(=O)C5CCN(c6ccc(S(=O)(=O)NC(=O)c7ccc(N8CCN(CC9=C(c%10ccc(Cl)cc%10)CC(C)(C)CC9)CC8)cc7Oc7cnc8[nH]ccc8c7)cc6[N+](=O)[O-])CC5)CC4)CC3)c(OC)c2)nc1NC1CCOCC1 | 5.93 | < 5.00 | < 5.00 | < 5.00 | 

Further lines, with some results ahead:

pIC50 (MV4-11 [3]) | pIC50 (MOLM-14 [5]) | Compound | pIC50 [4] | pIC50 [6] | other results
7.26 | 6.58 | CCc1nc(C(N)=O)c(Nc2ccc(N3CCN(C(=O)CNc4ccc(S(=O)(=O)NC(=O)c5ccc(N6CCN(CC7=C(c8ccc(Cl)cc8)CC(C)(C)CC7)CC6)cc5Oc5cnc6[nH]ccc6c5)cc4[N+](=O)[O-])CC3)c(OC)c2)nc1NC1CCOCC1 | 6.79 | 5.77 | pKd [1]: 8.37; pKd [2]: 7.20; viability at 0.2 µM (MV4-11 [7]): 52.2%; Activity (MV4-11 [8]): 18.6%; Activity (MV4-11 [9]): 27.9%; Activity [10]: inactive; Activity [11]: inactive
6.97 | 6.27 | CCc1nc(C(N)=O)c(Nc2ccc(N3CCN(C(=O)CCCCCCNc4ccc(S(=O)(=O)NC(=O)c5ccc(N6CCN(CC7=C(c8ccc(Cl)cc8)CC(C)(C)CC7)CC6)cc5Oc5cnc6[nH]ccc6c5)cc4[N+](=O)[O-])CC3)c(OC)c2)nc1NC1CCOCC1 | 6.55 | 5.48 | 
7.47 | 5.97 | CCc1nc(C(N)=O)c(Nc2ccc(N3CCC(N4CCN(C(=O)CNc5ccc(S(=O)(=O)NC(=O)c6ccc(N7CCN(CC8=C(c9ccc(Cl)cc9)CC(C)(C)CC8)CC7)cc6Oc6cnc7[nH]ccc7c6)cc5[N+](=O)[O-])CC4)CC3)c(OC)c2)nc1NC1CCOCC1 | 6.68 | < 5.00 | pKd [1]: 9.04; pKd [2]: 6.69; viability at 0.2 µM (MV4-11 [7]): 30.7%; Activity (MV4-11 [8]): 25.7%; Activity (MV4-11 [9]): 42.1%; Activity [10]: inactive; Activity [11]: inactive
